{"source": "patent US6756382B2", "about": "“Amide substituted imidazoquinolines” (3M Innovative Properties Company, priority 1999, dated 2004)", "note": "Structures can show the parent of a compound that is named as a salt."}
{"smiles": "N#Cc1ccc(C(=O)NCCCCn2cnc3c(N)nc4ccccc4c32)cn1", "note": "[Example 52, N^3-[4-(4-Amino-1H-imidazo[4,5-c]quinolin-1-yl)butyl]-6-cyanonicotinamide]", "melting point": "125 to 129 °C"}
{"smiles": "Cl.Nc1nc2ccccc2c2c1ncn2CCCCNC(=O)c1ccccc1.O", "note": "(hydrate or solvate)", "melting point": "254 to 256 °C"}
{"smiles": "Nc1nc2ccccc2c2c1ncn2CCCCNC(=O)c1ccc(Oc2ccccc2)cc1", "note": "[Example 64, N^1-[4-(4-Amino-1H-imidazo[4,5-c]quinolin-1-yl)butyl]-4-phenoxybenzamide]", "melting point": "90.5 to 91.5 °C"}
{"smiles": "CCCCCSc1ncccc1C(=O)NCCCCn1cnc2c(N)nc3ccccc3c21", "note": "[Example 51, N^3-[4-(4-Amino-1H-imidazo[4,5-c]quinolin-1-yl)butyl]-2-(pentylsulfanyl)nicotinamide]", "melting point": "158 to 161 °C"}
{"smiles": "Cc1nc2c(N)nc3ccccc3c2n1CCCNC(=O)C1CCCCC1", "note": "[Example 205, N-[3-(4-amino-2-methyl-1H-imidazo[4,5-c]quinolin-1-yl)propyl]cyclohexanecarboxamide]", "melting point": "234.4 to 235.4 °C"}
{"smiles": "COCCc1nc2c(N)nc3c(c2n1CCCNC(=O)c1ccccc1)CCCC3", "note": "[Example 195, N-{3-[4-amino-2-(2-methoxyethyl)-6,7,8,9-tetrahydro-1H-imidazo[4,5-c]quinolin-1-yl]propyl}benzamide]", "melting point": "167.8 to 169.6 °C"}
{"smiles": "CCc1nc2c(N)nc3ccccc3c2n1CCCCNC(=O)C1CCCC1", "note": "[Example 197, N-[4-(4-amino-2-ethyl-1H-imidazo[4,5-c]quinolin-1-yl)butyl]cyclopentanecarboxamide]", "melting point": "178.6 to 179.5 °C"}
{"smiles": "CCCC(=O)NCCCCn1c(CC)nc2c(N)nc3ccccc3c21", "note": "[Example 200, N-[4-(4-amino-2-ethyl-1H-imidazo[4,5-c]quinolin-1-yl)butyl]butanamide]", "melting point": "147.7 to 148.8 °C"}
{"smiles": "COCCc1nc2c(N)nc3ccccc3c2n1CCCCNC(=O)c1ccc(-n2cccc2)cc1", "note": "[Example 60, N^1-{4-[4-Amino-2-(2-methoxyethyl)-1H-imidazo[4,5-c]quinolin-1-yl]butyl}-4-(1-pyrrolyl)benzamide]", "melting point": "173 to 174.9 °C"}
{"smiles": "CCOCc1nc2c(N)nc3ccccc3c2n1CCNC(=O)CCCCC1SCC2NC(=O)NC21", "note": "(centres unmarked) (as salt: trifluoroacetate) [Example 29, N^1-[2-(4-Amino-2-(ethoxymethyl)-1H-imidazo[4,5-c]quinolin-1-yl)ethyl]-5-(2-oxoperhydrothieno[3,4-d]imidazol-4-yl)pentanamide Ditrifluoroacetate]", "melting point": "171 to 175 °C"}
{"smiles": "CCc1nc2c(N)nc3ccccc3c2n1CCCCNC(=O)C(C)C", "note": "[Example 199, N-[4-(4-amino-2-ethyl-1H-imidazo[4,5-c]quinolin-1-yl)butyl]-2-methylpropanamide]", "melting point": "155.4 to 156.3 °C"}
{"smiles": "Nc1nc2ccccc2c2c1ncn2CCCCNC(=O)c1ccc(Cl)nc1", "note": "[Example 53, N^3-[4-(4-Amino-1H-imidazo[4,5-c]quinolin-1-yl)butyl]-6-chloronicotinamide]", "melting point": "144 to 148 °C (dec.)"}
{"smiles": "Nc1nc2ccccc2c2c1nc(CCCOc1ccccc1)n2CCCNC(=O)c1ccc(Br)cc1", "note": "[Example 193, N-{3-[4-amino-2-(3-phenoxypropyl)-1H-imidazo[4,5-c]quinolin-1-yl]propyl}-4-bromobenzamide]", "melting point": "186.2 to 186.7 °C"}
{"smiles": "Nc1nc2ccccc2c2c1ncn2CCCCNC(=O)c1cn(Cc2ccccc2)c2ccccc12", "note": "[Example 42, N^3-[4-(4-Amino-1H-imidazo[4,5-c]quinolin-1-yl)butyl]-1-benzyl-1H-3-indolecarboxamide]", "melting point": "139 °C (dec.)"}
{"smiles": "CC(C(=O)NCCCCn1cnc2c(N)nc3ccccc3c21)c1ccc(-c2ccccc2)c(F)c1", "note": "(centres unmarked) [Example 56, N^1-[4-(4-Amino-1H-imidazo[4,5-c]quinolin-1-yl)butyl]-2-(2-fluoro-4-biphenylyl)propanamide]", "melting point": "76.1 to 79.9 °C"}
{"smiles": "CCCC(=O)NCCCCn1c(C)nc2c(N)nc3ccccc3c21", "note": "[Example 203, N-[4-(4-amino-2-methyl-1H-imidazo[4,5-c]quinolin-1-yl)butyl]butanamide]", "melting point": "169.4 to 170.5 °C"}
{"smiles": "Cc1nc2c(N)nc3ccccc3c2n1CCCNC(=O)C(C)C", "note": "[Example 207, N-[3-(4-amino-2-methyl-1H-imidazo[4,5-c]quinolin-1-yl)propyl]-2-methylpropanamide]", "melting point": "239 to 240.1 °C"}
{"smiles": "Nc1nc2ccccc2c2c1nc(-c1ccccc1)n2CCCCNC(=O)c1cccnc1", "note": "[Example 66, N^3-[4-(4-Amino-2-phenyl-1H-imidazo[4,5-c]quinolin-1-yl)butyl]nicotinamide]", "melting point": "84.5 to 86.1 °C"}
{"smiles": "COCCc1nc2c(N)nc3ccccc3c2n1CCCCNC(=O)c1c[nH]c2ccccc12", "note": "[Example 59, N^3-{4-[4-Amino-2-(2-methoxyethyl)-1H-imidazo[4,5-c]quinolin-1-yl]butyl}-3-indolecarboxamide]", "melting point": "225.5 to 227.4 °C"}
{"smiles": "Cc1nc2c(N)nc3ccccc3c2n1CCCCNC(=O)C(C)C", "note": "[Example 202, N-[4-(4-amino-2-methyl-1H-imidazo[4,5-c]quinolin-1-yl)butyl]-2-methylpropanamide]", "melting point": "159.7 to 160.7 °C"}
{"smiles": "Nc1nc2ccccc2c2c1ncn2CCCNC(=O)c1ccccc1", "note": "(as salt: hydrochloride) [Example 11, N^1-[3-(4-Amino-1H-imidazo[4,5-c]quinolin-1-yl)propyl]benzamide Hydrochloride]", "melting point": "265 to 270 °C"}
{"smiles": "Nc1nc2ccccc2c2c1ncn2CCCCNC(=O)c1cccnc1", "note": "[Example 47, N^3-[4-(4-Amino-1H-imidazo[4,5-c]quinolin-1-yl)butyl]nicotinamide]", "melting point": "188.6 to 189.5 °C"}
{"smiles": "Cc1nc2c(N)nc3ccccc3c2n1CCCCNC(=O)C1CCCCC1", "note": "[Example 198, N-[4-(4-amino-2-methyl-1H-imidazo[4,5-c]quinolin-1-yl)butyl]cyclohexanecarboxamide]", "melting point": "191.6 to 192.6 °C"}
{"smiles": "COc1ccc(Cc2nc3c(N)nc4ccccc4c3n2CCCCNC(=O)c2ccc3ccccc3n2)cc1", "note": "[Example 61, N^2-{4-[4-Amino-2-(4-methoxybenzyl)-1H-imidazo [4,5-c]quinolin-1-yl]butyl}-2-quinolinecarboxamide]", "melting point": "95.1 to 97.4 °C"}
{"smiles": "Nc1nc2ccccc2c2c1ncn2CCCCNC(=O)c1ccc(OCC(F)(F)F)nc1", "note": "[Example 54, N^3-[4-(4-Amino-1H-imidazo[4,5-c]quinolin-1-yl)butyl]-6-(2,2,2-trifluoroethoxy)nicotinamide]", "melting point": "192 to 194 °C (dec.)"}
{"smiles": "Cc1nc2c(N)nc3ccccc3c2n1CCCCNC(=O)C1CCCC1", "note": "[Example 201, N-[4-(4-amino-2-methyl-1H-imidazo[4,5-c]quinolin-1-yl)butyl]cyclopentanecarboxamide]", "melting point": "168.6 to 169.8 °C"}
{"smiles": "COCCc1nc2c(N)nc3ccccc3c2n1CCCCNC(=O)c1ccc2ccccc2n1", "note": "[Example 55, N^2-{4-[4-Amino-2-(2-methoxyethyl)-1H-imidazo[4,5-c]quinolin-1-yl]butyl}-2-quinolinecarboxamide]", "melting point": "78.1 to 79.9 °C"}
{"smiles": "Nc1nc2ccccc2c2c1ncn2CCCCCNC(=O)c1ccccc1", "note": "(as salt: hydrochloride) [Example 10, N^1-[5-(4-Amino-1H-imidazo[4,5-c]quinolin-1-yl)pentyl]benzamide Hydrochloride]", "melting point": "217 to 219 °C"}
{"smiles": "COCCc1nc2c(N)nc3ccccc3c2n1CCCCNC(=O)c1cncc(C#Cc2ccccc2)c1", "note": "[Example 65, N^5-{4-[4-Amino-2-(2-methoxyethyl)-1H-imidazo[4,5-c]quinolin-1-yl]butyl}-5-(2-phenyl-1-ethynyl)nicotinamide]", "melting point": "76 to 78 °C"}
{"smiles": "Nc1nc2ccccc2c2c1ncn2CCCCNC(=O)c1ccnc2ccccc12", "note": "[Example 49, N^4-[4-(4-Amino-1H-imidazo[4,5-c]quinolin-1-yl)butyl]-4-quinolinecarboxamide]", "melting point": "214.5 to 215.2 °C"}
{"smiles": "COCCc1nc2c(N)nc3ccccc3c2n1CCCCNC(=O)c1nccc2ccccc12", "note": "[Example 57, N^1-{4-[4-Amino-2-(2-methoxyethyl)-1H-imidazo[4,5-c]quinolin-1-yl]butyl}-1-isoquinolinecarboxamide]", "melting point": "61 to 63 °C"}
{"smiles": "CCCC(=O)NCCCn1c(C)nc2c(N)nc3ccccc3c21", "note": "[Example 208, N-[3-(4-amino-2-methyl-1H-imidazo[4,5-c]quinolin-1-yl)propyl]butanamide]", "melting point": "221.8 to 223.3 °C"}
